Data on five compounds can be found in patent publication EP4813986A1, “COMPOUND FOR REDUCING SERUM CONCENTRATION OF RBP4, AND USE” (Heronova Pharmaceuticals, LLC, priority 2023, dated 2025).

One data set concerns the target T1, RBP4 (Mus musculus, UniProt Q00724).
T1 construct: from tissue; host or cells: plasma of ICR male mice
As to the kind of experiment: Plasma RBP4 content detection test (ELISA) after single oral dose. Format: in vivo, ICR male mice. The note with it: 5 mg/kg oral, maximum reduction within 5 to 24 hours vs 0-hour value. The procedure: Test Method: ICR male mice aged 7 to 8 weeks were adaptively fed for 3 to 7 days and randomly divided into groups (4 mice per group), and fasted for 12 hours before the test. Orbital venous blood samples were collected and plasma was separated before administration on the test day (0-hour value as the initial content). Then, test compounds at a dose of 1 mg/kg or 5 mg/kg were orally administered (vehicle: 5% DMSO + 10% cyclodextrin), and vehicle (5% DMSO + 10% cyclodextrin) was orally administered as a control group. Orbital venous blood samples were collected and plasma was separated at 5, 8, 10, 12, and 24 hours after compound administration. The RBP4 content in plasma samples was detected using Mouse RBP4 (Retinol Binding Protein 4, Plasma) ELISA Kit (immunoway, KE1574), the reduction rate was calculated, and the maximum reduction rate within 5 to 24 hours was selected. Reduction rate of RBP4 content in mouse plasma at different sampling time points = (Initial RBP4 content - RBP4 content at sampling point) / Initial RBP4 content. Table 2 Plasma RBP4 Reduction Levels of Different Compounds
For orientation: ELISA stands for enzyme-linked immunosorbent assay.

Data set [1] is described as follows: Pharmacokinetic test, single oral dose, plasma LC-MS/MS. The data set is classed as in vivo. To be noted: mouse, male ICR mice; for half-life: read-out: half-life T1/2 (converted); for Cmax: read-out: peak concentration Cmax; for Tmax: read-out: peak time Tmax. As for the experimental part:
Test Method: Three ICR mice (male) were used for each compound, with five groups in total. Mice were treated with a single oral dose of 10 mg/kg or 5 mg/kg. For each mouse, blood samples were collected at 0.25, 0.5, 1, 2, 4, and 8 hours after administration. Whole blood samples were placed in test tubes containing EDTA-K2, inverted up and down several times, and then centrifuged at 6000 rpm, 4°C for 15 minutes to obtain plasma. The concentration of the compound in plasma samples was determined using the LC-MS/MS method. Table 4 Pharmacokinetic Results of Different Compounds

A further data set can be described thus: in vitro. The note with it: microsomes, pH 7.4. The procedure:
Phosphate buffer preparation: Weigh 7.098 g of disodium hydrogen phosphate, add 500 mL of pure water and dissolve by ultrasonication to obtain a disodium hydrogen phosphate solution. Weigh 3.400 g of potassium dihydrogen phosphate, add 250 mL of pure water and dissolve by ultrasonication to obtain a potassium dihydrogen phosphate solution. The disodium hydrogen phosphate solution and potassium dihydrogen phosphate solution were mixed and adjusted to pH 7.4+0.2.
10 mM NADPH preparation: Weigh an appropriate amount of NADPH (reduced coenzyme II), freshly prepare a 10 mM working solution with phosphate buffer, and the final concentration is 1 mM.
Incubation system preparation: Prepare the suspension into the incubation plate according to Table 5, and pre-incubate in a 37°C water bath for 10 min. Table 5 Incubation System Preparation
2 µL of positive control or test compound working solution was added to 358 µL of the incubation system, mixed uniformly by vortexing, and all samples were prepared in duplicate. 40 µL of 10 mM NADPH was added to the system, mixed uniformly by low-speed vortexing, and the reaction timing was started. […] Centrifuge at 4700 rpm, 4°C for 15 minutes to precipitate proteins. Transfer 100 µL of the supernatant to the sample plate, add 100 µL of pure water and mix well for UPLC-MS/MS analysis. Table 6 Liver Microsome Stability Results

The mark [2] stands for this setting: in vivo, single oral dose 10 mg/kg.

Each structure is given as a SMILES string. Where two headings read alike, the source gives them in different places.

The AUC(0-t) is the area under the concentration-time curve up to a stated or last time point. Low readings indicate less exposure, high ones more exposure. By Tmax is commonly meant the time from dosing to the highest level. For orientation: microsomal CLint means the capacity of the preparation to metabolise the compound, expressed as a volume cleared per time. For the compound `O=C(c1n[nH]c2c1CCNC2)N1CC=C(c2ccc(F)c(F)c2C(F)(F)F)CC1` [Compound 14], the “Maximum Plasma RBP4 Reduction Rate (5 mg/kg dose)” value (from here on “Maximum Plasma RBP4 Reduction Rate”) at RBP4 worked out at 53%. In data set [1] (single oral dose 5 mg/kg), the area under the curve AUC(0-t) is 6000 ng·h/mL, the half-life is 452 min, the Cmax came out at 364 ng/mL and the Tmax came out at 318 min. Also, in the data set “in vitro” (human), the half-life at 1 µM was over 180 min and the microsomal CLint at 1 µM is under 7.44 µL/min/mg. In the data set “in vitro” (mouse), the half-life at 1 µM is 30 min and the microsomal CLint at 1 µM was 46.2 µL/min/mg.

For `COCC(=O)N1CCc2c(C(=O)N3CC=C(c4ccc(F)c(F)c4C(F)(F)F)CC3)n[nH]c2C1` [Compound 7], the “Maximum Plasma RBP4 Reduction Rate” value on RBP4 is 64%. In data set [1] (single oral dose 10 mg/kg), the AUC(0-t) worked out at 1530 ng·h/mL, the half-life is 89.4 min, the Cmax came to 1050 ng/mL and the time of peak concentration (Tmax) worked out at 30 min. Further, in “in vitro” (human), the half-life at 1 µM was 103 min and the intrinsic metabolic clearance (microsomal CLint) at 1 µM was determined as 13.4 µL/min/mg. Also, in the data set “in vitro” (mouse), the half-life at 1 µM is 15.6 min and the intrinsic clearance (microsomal CLint) at 1 µM was determined as 89 µL/min/mg.

Turning to `NC(=O)CN1CCc2c(C(=O)N3CC=C(c4cccc(F)c4C(F)(F)F)CC3)n[nH]c2C1` [Compound 15], on RBP4, the “Maximum Plasma RBP4 Reduction Rate” value was 77%. Besides, in data set [1] (single oral dose 5 mg/kg), the exposure AUC(0-t) amounted to 319 ng·h/mL, the half-life is 185 min, the Cmax is 141 ng/mL and the time to peak (Tmax) was determined as 30 min. Also, in the data set “in vitro” (human), the half-life at 1 µM was over 180 min and the microsomal CLint at 1 µM is under 7.44 µL/min/mg. In “in vitro” (mouse), the half-life at 1 µM is 17.4 min and the microsomal CLint at 1 µM was determined as 79.9 µL/min/mg.

`CC(=O)N1CCc2c(C(=O)N3CC=C(c4ccc(F)c(F)c4C(F)(F)F)CC3)n[nH]c2C1` [Compound 1]: the “Maximum Plasma RBP4 Reduction Rate” value at RBP4 is reported as 41%. For the same compound, in data set [1] (setting [2]), the area under the curve AUC(0-t) came to 2460 ng·h/mL, the half-life was 167 min, the Cmax worked out at 1240 ng/mL and the time of peak concentration (Tmax) stood at 30 min. Also, in the data set “in vitro” (human), the half-life at 1 µM was over 180 min and the microsomal CLint at 1 µM is under 7.44 µL/min/mg. Besides, in the data set “in vitro” (mouse), the half-life at 1 µM turned out to be 45.9 min and the microsomal CLint at 1 µM turned out to be 30.2 µL/min/mg.

In the case of `CC(C(N)=O)C(=O)N1CCc2c(C(=O)N3CC=C(c4cccc(F)c4C(F)(F)F)CC3)n[nH]c2C1` (centres unmarked) [Compound 22], on RBP4, the “Maximum Plasma RBP4 Reduction Rate” value was 11%. In data set [1] (single oral dose 10 mg/kg), the exposure AUC(0-t) amounted to 13.3 ng·h/mL, the Cmax is 15.2 ng/mL and the time of peak concentration (Tmax) was 30 min. In “in vitro” (human), this compound came in with a half-life at 1 µM of over 180 min and a microsomal CLint at 1 µM of under 7.44 µL/min/mg. In the data set “in vitro” (mouse), this compound registered a half-life at 1 µM of 43 min and a microsomal CLint at 1 µM of 32.2 µL/min/mg.
